IC50 data for 4 molecules are collected here from patent US20040220148A1, “5-Membered ring heterocycles as inhibitors of leucocyte adhesion and as VLA-4 antagonists” (Aventis Pharma Deutschland GmbH, priority 1996, published 2004).

In this test the target is T1, VLA-4 integrins on human U937 cells (interaction between VCAM-1 and VLA-4) (Homo sapiens, UniProt P05556+P13612).
T1 construct: the VLA-4 integrins, are offered in their natural form as surface molecules on human U937 cells; host or cells: U937 cells (VLA-4, endogenous); the partner hVCAM-1(1-3)-IgG came from the supernatant of transfected COS cells (ATCC CRL1651)
T1 sequence (P13612 34-1032): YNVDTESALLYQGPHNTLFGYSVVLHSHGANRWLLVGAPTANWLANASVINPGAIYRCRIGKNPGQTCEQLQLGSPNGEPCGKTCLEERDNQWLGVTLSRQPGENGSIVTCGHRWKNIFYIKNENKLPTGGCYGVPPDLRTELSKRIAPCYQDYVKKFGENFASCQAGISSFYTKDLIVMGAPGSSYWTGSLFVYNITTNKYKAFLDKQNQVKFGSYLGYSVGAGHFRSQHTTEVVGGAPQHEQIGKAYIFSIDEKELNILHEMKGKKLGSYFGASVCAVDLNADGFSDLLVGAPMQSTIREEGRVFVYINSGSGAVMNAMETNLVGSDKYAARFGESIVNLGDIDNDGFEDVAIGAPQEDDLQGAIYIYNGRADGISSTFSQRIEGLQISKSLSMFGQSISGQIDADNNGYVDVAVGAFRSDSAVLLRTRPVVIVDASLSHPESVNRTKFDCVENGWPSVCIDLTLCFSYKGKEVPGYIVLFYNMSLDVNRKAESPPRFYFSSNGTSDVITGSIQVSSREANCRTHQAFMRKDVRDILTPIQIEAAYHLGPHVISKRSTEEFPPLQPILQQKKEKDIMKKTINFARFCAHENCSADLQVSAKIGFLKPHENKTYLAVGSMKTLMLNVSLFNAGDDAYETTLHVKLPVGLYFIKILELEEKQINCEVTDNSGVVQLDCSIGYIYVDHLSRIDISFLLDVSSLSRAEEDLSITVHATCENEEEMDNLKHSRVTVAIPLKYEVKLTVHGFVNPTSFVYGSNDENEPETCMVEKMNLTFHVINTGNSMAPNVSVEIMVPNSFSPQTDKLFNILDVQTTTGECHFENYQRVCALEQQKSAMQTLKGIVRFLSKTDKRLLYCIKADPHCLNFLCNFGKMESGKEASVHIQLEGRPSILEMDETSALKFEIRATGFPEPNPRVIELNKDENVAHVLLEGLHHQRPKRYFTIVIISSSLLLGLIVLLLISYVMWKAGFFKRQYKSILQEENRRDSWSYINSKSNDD
T1 sequence (P05556 21-798): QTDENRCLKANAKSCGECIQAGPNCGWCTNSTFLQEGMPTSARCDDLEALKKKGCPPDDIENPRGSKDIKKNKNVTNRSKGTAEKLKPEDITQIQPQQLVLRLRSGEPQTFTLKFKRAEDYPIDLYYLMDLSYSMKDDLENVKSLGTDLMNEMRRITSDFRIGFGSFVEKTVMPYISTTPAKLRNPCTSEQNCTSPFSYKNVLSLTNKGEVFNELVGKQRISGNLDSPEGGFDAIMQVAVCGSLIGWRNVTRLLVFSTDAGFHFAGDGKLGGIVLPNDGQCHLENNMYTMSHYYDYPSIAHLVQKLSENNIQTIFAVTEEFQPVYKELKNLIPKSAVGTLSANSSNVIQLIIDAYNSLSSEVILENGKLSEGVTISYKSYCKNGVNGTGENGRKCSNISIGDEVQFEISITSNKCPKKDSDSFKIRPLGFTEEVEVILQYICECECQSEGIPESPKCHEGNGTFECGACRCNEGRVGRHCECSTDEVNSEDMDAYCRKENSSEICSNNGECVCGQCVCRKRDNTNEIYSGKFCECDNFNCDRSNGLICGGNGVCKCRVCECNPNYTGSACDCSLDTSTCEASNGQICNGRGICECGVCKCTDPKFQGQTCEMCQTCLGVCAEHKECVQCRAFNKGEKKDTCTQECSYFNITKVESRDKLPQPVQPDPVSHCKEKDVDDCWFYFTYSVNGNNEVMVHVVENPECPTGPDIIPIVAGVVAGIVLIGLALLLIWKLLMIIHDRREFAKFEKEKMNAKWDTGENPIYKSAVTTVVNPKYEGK
The test can be described thus: U937/VCAM-1 cell adhesion test (adhesion of U937 cells to hVCAM-1(1-3)-IgG). In kind it is cell-based. To be noted: concentration leading to 50% inhibition of adhesion. The source says:
As a test method for the activity of the compounds of the formula I on the interaction between VCAM-1 and VLA-4, an assay which is specific for this interaction is used. The cellular binding components, i.e. the VLA-4 integrins, are offered in their natural form as surface molecules on human U937 cells (ATCC CRL 1593) which belong to the group of leucocytes. As specific binding components, recombinant soluble fusion proteins prepared by genetic engineering and consisting of the extracytoplasmic domains of human VCAM-1 and the constant region of a human immunoglobulin of the subclass IgG1 are used.
Assay for the Measurement of the Adhesion of U937 Cells (ATCC CRL 1593) to hVCAM-1 (1-3)-IgG
1. Preparation of Human VCAM-1(1-3)-IgG and Human CD4-IgG
A genetic construct for the expression of the extracellular domains of human VCAM-1 was employed, associated with the genetic sequence of the heavy chain of human immunoglobulin IgG1 (hinge, CH2 and CH3 regions), from Dr. Brian Seed, Massachusetts General Hospital, Boston, USA. The soluble fusion protein hVCAM-1(1-3)-IgG contained the three amino-terminal extracellular immunoglobulin-like domains of human VCAM-1 (Damle and Aruffo, Proc. Natl. Acad. Sci. USA 1991, 88, 6403). CD4-IgG (Zettlmeissl et al, DNA and Cell Biology 1990, 9, 347) served as a fusion protein for negative controls. The recombinant proteins were expressed as soluble proteins after DEAE/dextran-mediated DNA-transfection in COS cells (ATCC CRL1651) according to standard procedures (Ausubel et al., Current protocols in molecular biology, John Wiley & Sons, Inc., 1994).
2. Assay for Measurement of the Adhesion of U937 Cells to hVCAM-1(1-3)-IgG
2.1 96-well microtiter test plates (Nunc Maxisorb) were incubated at room temperature for 1 hour with 100 μl/well of a goat-anti-human IgG antibody solution (10 μg/ml in 50 mM tris, pH 9.5). After removing the antibody solution, washing was carried out once with PBS.
2.2 150 μl/well of a blocking buffer (1% BSA in PBS) were incubated on the plates at room temperature for 0.5 hours. After removing the blocking buffer, washing was carried out once with PBS.
2.3 100 μl per well of a cell culture supernatant of transfected COS cells were incubated on the plates at room temperature for 1.5 hours. The COS cells were transfected with a plasmid which codes for the three N-terminal immunoglobulin-like domains of VCAM-1, coupled to the Fc part of human IgG1 (hVCAM-1(1-3)-IgG). The content of hVCAM-1 (1-3)-IgG was about […]. After removing the culture supernatant, washing was carried out once with PBS.
2.4 The plates were incubated at room temperature for 20 minutes with […] of Fc receptor blocking buffer (1 mg/ml of γ-globulin, 100 mM NaCl, 100 μM MgCl2, 100 μM MnCl2, 100 μM CaCl2, 1 mg/ml BSA in 50 mM HEPES, pH 7.5). After removing the Fc receptor blocking buffer, washing was carried out once with PBS.
2.5 20 μl of binding buffer (100 mM NaCl, 100 μM MgCl2, 100 μM MgCl2, 100 μM CaCl2, 1 mg/ml BSA in 50 mM HEPES, pH 7.5), were initially introduced, the substances to be tested were added in 10 μl of binding buffer and the mixture was incubated for 20 minutes. As controls, antibodies against VCAM-1 (BBT, No. BBA6) and against VLA-4
(Immunotech, No. 0764) were used.
2.6 U937 cells were incubated in Fc receptor blocking buffer for 20 minutes and then pipetted in at a concentration of 1×10^6/ml and in an amount of 100 μl per well ([…]).
2.7 The plates were slowly immersed at an angle of 45° in stop buffer (100 mM NaCl, 100 μM MgCl2, 100 μM MnCl2, 100 μM CaCl2 in 25 mM Tris, pH 7.5) and shaken off. The process was repeated.
2.8 50 μl/well of a dye solution (16.7 μg/ml of Hoechst dye 33258, 4% formaldehyde, 0.5% Triton X-100 in PBS) were then incubated on the plates for 15 minutes.
2.9 The plates were shaken off and slowly immersed at an angle of 45° in stop buffer (100 mM NaCl, 100 μM MgCl2, 100 μM MnCl2, 100 μM CaCl2 in 25 mM Tris, pH 7.5). The process was repeated. […]

Structures can show the parent of a compound that is named as a salt.

As usually defined, the IC50 is the concentration that inhibits the measured activity by half. The low end stands for greater potency in that assay, the high end for weaker potency in that assay. Consider `CC1(c2ccc(C(=N)N)cc2)C(=O)N(CC(=O)N[C@@H](CC(=O)O)C(=O)N[C@H](C(=O)O)c2ccccc2)C(=O)N1Cc1ccc(C(F)(F)F)cc1` (mixture of isomers) [Example 15, ((R,S)-4-(4-(Amino-imino-methyl)phenyl)-3-(4-trifluoromethylbenzyl)-4-methyl-2,5-dioxoimidazolidin-1-yl)acetyl-L-aspartyl-L-phenylglycine], for which the concentration for half-maximal inhibition (IC50) was determined as 32 µM.

For `CC(C(=O)N[C@@H](CC(=O)O)C(=O)N[C@H](C(=O)O)c1ccccc1)N1C(=O)N(Cc2ccccc2)C(C)(c2ccc(C(=N)N)cc2)C1=O` (stereo partly drawn) [Example 62, ((R,S)-2-((R,S)-4-(4-(Amino-imino-methyl)phenyl)-3-benzyl-4-methyl-2,5-dioxoimidazolidin-1-yl)-2-methylacetyl)-L-aspartyl-L-phenylglycine], the midpoint of inhibition, the IC50, lay at 0.37 µM.

The molecule `CC1(c2ccc(C(=N)N)cc2)C(=O)N(CC(=O)NC(CC(=O)O)c2ccccc2)C(=O)N1Cc1ccccc1` [Example 33, (R,S)-3-(((R,S)-4-(4-(Amino-imino-methyl)phenyl)-3-benzyl-4-methyl-2,5-dioxoimidazolidin-1-yl)acetylamino)-3-phenylpropionic acid hydrochloride] showed an IC50 of 45 µM.

On to `CC1(c2ccc(C(=N)N)cc2)C(=O)N(CC(=O)NC(CC(=O)O)c2ccc3c(c2)OCCO3)C(=O)N1Cc1ccccc1` [Example 58, (R,S)-3-(((R,S)-4-(4(Amino-imino-methyl)phenyl)-3-benzyl-4-methyl-2,5-dioxoimidazolidin-1-yl)acetylamino)-3-(3,4-ethylenedioxyphenyl)propionic acid], for which the concentration for half-maximal inhibition (IC50) came out at 25 µM.
